Literature values in patent US20240358731A1, “SUMO PATHWAY AS AN OXYGEN SENSOR RELEVANT TO THE PATHOPHYSIOLOGY OF PULMONARY ARTERY HYPERTENSION AND CARDIAC ARRHYTHMIA” (Northeastern University, priority 2023, published 2024).
Non-standard residues stand in square brackets, D forms with d. Residues, ends and D or L forms follow the SMILES beside them. ξ: configuration not given here. *: point of attachment. X2 = O=C(CN*)COC(=O)c1c2ccccc2cc2ccccc12; X1 = O=C(Cc1ccc(O)c([N+](=O)[O-])c1)*; Thr(3ξ) = CC(O)[C@H](N)C(=O)O

Tests used:
[1] = tested on: SUMOylation; settings: cited from earlier work
[2] = tested on: SENP; settings: cited from earlier work

| SMILES | SENP inhibition [2] | also measured |
| --- | --- | --- |
| Cc1cc2c(o1)-c1ccccc1C(=O)C2=O [33-DINOR-dehydrodunnione] | – | SUMOylation inhibition [1]: potent SUMOylation inhibitors |
| CC1CC2=C(O1)c1ccccc1C(=O)C2=O (stereo not shown) [33-DINOR-dunnione] | – | SUMOylation inhibition [1]: potent SUMOylation inhibitors |
| COC(=O)C1=C(C(=O)OC)C2([C@@H](Cc3ccc(C)cc3)Nc3ccccc3)C=CC1O2 (stereo partly shown) [COH000] | – | SUMOylation inhibition [1]: more potent SUMOylation inhibitor |
| O=CCN1C(=O)C(NC(=O)c2cccc(NC(=O)OCc3ccccc3)c2)N=C(c2ccccc2)c2ccccc21 (stereo not shown) [Compound 39] | potent and selective SENP inhibition | – |
| O=C(COC(=O)c1ccc(NC(=O)c2cccc(OCc3ccccc3)c2)cc1)c1ccc(Cl)cc1 [Compound 43] | modest improvement in activity | – |
| CCOc1ccc(-c2nonc2NC(=O)COc2ccc(Cl)c(C)c2)cc1C [Compound 46] | potent and selective SENP inhibition | – |
| Cc1cc(OCC(=O)Nc2nonc2NC(=O)COc2ccc(Cl)c(C)c2)ccc1Cl [Compound 47] | potent and selective SENP inhibition | – |
| O=C(NCc1cccc(CNC(=O)c2sc3cc(F)ccc3c2Cl)c1)c1sc2cc(F)ccc2c1Cl [Compound 49] | potent and selective SENP inhibition | – |
| O=C(Nc1cccc(NC(=O)c2ccc(-c3cc(Cl)ccc3Cl)o2)c1)c1ccccc1 [Compound 50] | potent and selective SENP inhibition | – |
| COc1ccc(-c2cccc(C(=O)NCc3cccc(NC(=O)CCc4ccccc4)c3)c2)cc1 [Compound 51] | potent and selective SENP inhibition | – |
| CNC(=O)c1cc(COC(=O)c2ccc3c(c2)c(COc2ccc4[nH]ccc4c2)cn3S(C)(=O)=O)cc(=O)[nH]1 [Compound 52] | potent and selective SENP inhibition | – |
| CS(=O)(=O)n1cc(COc2ccc3[nH]ccc3c2)c2cc(C(=O)OCc3cc(C#N)[nH]c(=O)c3)ccc21 [Compound 53] | potent and selective SENP inhibition | – |
| CNC(=O)c1cc(CNC(=O)c2ccc3c(c2)c(COc2ccc4[nH]ccc4c2)cn3S(C)(=O)=O)cc(=O)[nH]1 [Compound 54] | potent and selective SENP inhibition | – |
| O=C1C(O)=C(c2ccc(O)cc2)C(=O)C(O)=C1c1ccc(O)cc1 [NSC76919] | exhibited inhibitory activity | – |
| CCc1cc(=O)[nH]c(-n2nc(-c3ccccc3)cc2NC(=O)Nc2ccc(C(C)(C)C)cc2)n1 [Pyrazole urea] | – | SUMOylation inhibition [1]: potent molecules capable of inhibiting SUMOylation in vitro |
| O=C(/C=C/C1C(OC(=O)c2ccc(-c3ccccc3)cc2)CC2OC(=O)CC21)Oc1cccc(Cl)c1 (stereo not shown) [SI2] | potent and selective SENP inhibition | – |
| Cc1cc(-c2ccc(/N=N/c3c(N)c(S(=O)(=O)O)cc4cc(S(=O)(=O)O)ccc34)c(C)c2)ccc1/N=N/c1c(N)ccc2ccc(S(=O)(=O)O)cc12 [SPI-02] | – | inhibition of SUMO2 maturation [2]: more active at inhibiting SUMO2 maturation |
| CC(O)[C@H](NC(=O)[C@H](CCC(N)=O)NC(=O)Cc1ccc(O)c([N+](=O)[O-])c1)C(=O)NCC(=O)NCC(=O)COC(=O)c1c2ccccc2cc2ccccc12 (stereo partly shown) [VAE-499] | more potent and selective SENP inhibitors | – |
| CC(O)[C@H](NC(=O)[C@H](CCC(N)=O)NC(=O)[C@H](CCC(N)=O)NC(=O)Cc1ccc(O)c([N+](=O)[O-])c1)C(=O)NCC(=O)NCC(=O)COC(=O)c1c2ccccc2cc2ccccc12 (stereo partly shown) [VAE-500] (X1-QQ[Thr(3ξ)]G-X2) | more potent and selective SENP inhibitors | – |
| CC(C)C[C@H](NC(=O)Cc1ccc(O)c([N+](=O)[O-])c1)C(=O)N[C@@H](CCCNC(=N)N)C(=O)NCC(=O)NCC(=O)COC(=O)c1c2ccccc2cc2ccccc12 [VAE-561] | more potent and selective SENP inhibitors | – |
| CC1CC2=C(O1)c1cccc(O)c1C(=O)C2=O (stereo not shown) [nocardione A] | – | SUMOylation inhibition [1]: potent SUMOylation inhibitors |
| COc1cc(NC(=O)Nc2nc(-c3nc4ccccc4s3)cs2)cc(OC)c1OC [thiazole urea] | – | SUMOylation inhibition [1]: potent molecules capable of inhibiting SUMOylation in vitro |
